In PMC12391581 (Antiviral Research, 2025):
Where two headings read alike, the source gives them in different places.

Tests used:
[1] = tested on: B/Victoria-lineage viruses; format: cell-based
[2] = tested on: neuraminidase (NA) of B/Victoria-lineage viruses; format: biochemical, influenza B/Victoria-lineage virus
[3] = tested on: neuraminidase (NA) of A(H3N2) viruses; conditions: cited from earlier work
[4] = tested on: neuraminidase (NA) of B/Victoria-lineage viruses; conditions: cited from earlier work

Row | SMILES | EC50 fold-change compared to reference median EC50 values [1] | NAI inhibition phenotype (NI/RI/HRI) [2] | NAI inhibition phenotype (NI/RI/HRI) [3] | NAI inhibition phenotype (NI/RI/HRI) [4]
1 | COC(=O)OCOc1c2n(ccc1=O)N([C@@H]1c3ccccc3SCc3c1ccc(F)c3F)[C@@H]1COCCN1C2=O [Baloxavir, baloxavir marboxil] | 3.09–7.93 fold |  |  | 
2 | CCOC(=O)C1=C[C@@H](OC(CC)CC)[C@H](NC(C)=O)[C@@H](N)C1 [Oseltamivir, oseltamivir] |  | RI (key: normal inhibition (NI) is a <5-fold increase in the NAI IC50; RI is a 5- to 50-fold increase; HRI is a >50-fold increase) |  | 
3 | CC(=O)N[C@H]1[C@H]([C@H](O)[C@H](O)CO)OC(C(=O)O)=C[C@@H]1N=C(N)N [Zanamivir, zanamivir] |  | RI (key: normal inhibition (NI) is a <5-fold increase in the NAI IC50; RI is a 5- to 50-fold increase; HRI is a >50-fold increase) | NI/RI | NI/RI
